Consider ten compounds from US9943506B2, “BCL6 inhibitors as anticancer agents” (Cornell University, priority 2013, dated 2018).

Read-outs that look alike come from different tables or passages of the source.

By Kd is commonly meant a measure of binding affinity in units of concentration.

In one data set the target is T1, PLZF-BTB (Homo sapiens, UniProt Q05516).
T1 construct: the repression activity of the HIC1, PLZF, or Kaiso BTB domains; expressed in transfected cells; host or cells: 293T
T1 sequence (Q05516 34-96 limits assumed): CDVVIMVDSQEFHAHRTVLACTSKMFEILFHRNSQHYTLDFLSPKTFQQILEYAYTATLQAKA
The settings on record: earlier work on 79-6; cited from earlier work.

In another data set the target is BCL6-BTB (Homo sapiens, UniProt P41182). Kind of data set: MicroScale Thermophoresis binding to BCL6-BTB. As to the method: BCL6 is also required for normal development of germinal center (GC) B-cells.
Recombinant BCL6-BTB was labeled using the RED-NHS Labeling kit (NanoTemper Technologies). […] The label:protein ratio was determined using photometry at 650 nm and Bradford reagent. […] The labeled BCL6-BTB was adjusted to 400 nM with PBS (Thermo) buffer supplemented with 0.05% Tween-80 (Fisher scientific). […] After 10 min incubation, approximately 4 μL of each solution was filled into Monolith NT Standard Treated Capillaries (NanoTemper Technologies GmbH). Thermophoresis was measured using a Monolith NT.115 instrument (NanoTemper Technologies GmbH) at an ambient temperature of 25° C. with 5 s/30 s/5 s laser off/on/off times, respectively. Instrument parameters were adjusted with 90% LED power and 40% MST power. Data of three independent experiments were analyzed (NT.Analysis software version 1.5.41, NanoTemper Technologies) using the signal from Thermophoresis.
In general terms: Microscale thermophoresis detects binding through changes in fluorescence in a small temperature gradient.

The target of a further data set is T2, HIC1-BTB (Homo sapiens, UniProt Q14526).
T2 construct: expressed in transfected cells; host or cells: 293T
T2 sequence (Q14526 47-110 limits assumed): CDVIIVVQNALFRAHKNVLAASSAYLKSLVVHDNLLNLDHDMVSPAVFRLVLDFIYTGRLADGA
The settings on record: earlier work on 79-6; cited from earlier work.

For the next data set, the system named is human DLBCL xenografts. To be noted: mice; earlier work on 79-6; cited from earlier work.
In another data set the test system is mice. The settings on record: earlier work on 79-6; cited from earlier work.
For the next data set, the system named is Ly1 DLBCL cells. Kind of data set: Growth inhibition of DLBCL cells, Ly1. The data set is classed as cell-based. To be noted: Table 9; Bcl6 dependent; read-out: GI 50 Ly1. As to the method: (§1) 50,000 cells per well were treated for 48 hours with different concentrations of the compounds in 96 well plates, using DMSO as a control. Then, viability was determined with Cell Titer Blue™ (Promega) and growth inhibition was calculated as the percentage of viable cells with respect to cells treated with DMSO alone. GI50 values were determined by dose-response curves.
(§2) 293T cells were grown in Dulbecco's modified Eagles medium supplemented with 10% fetal bovine serum (FBS) (Gemini Bio-Products, Woodland, Calif.) and 1% penicillin-streptomycin. DLBCL cell lines OCI-Ly1, OCI-Ly1-B50, OCI-Ly7, OCI-Ly10 and OCI-Ly19 were grown in 80% Iscove's medium, 20% FBS and penicillin G/streptomycin. DLBCL cell lines Toledo, Farage, SU-DHL4, DOHH-2, SC-1, RCK8, TMD8, HBL-1, Ly3, Karpas 422 and SU-DHL6 were cultured in 90% RPMI medium, 10% FBS, 2 mM glutamine, 10 mM Hepes and penicillin G/streptomycin. All cell lines were cultured at 37° C. in a humidified atmosphere of 5% CO2.

In a further data set the test system is Ly7 DLBCL cells. Kind of data set: Growth inhibition of DLBCL cells, Ly7. The format is cell-based. As for the experimental part:
as §1, §2

For a further data set, the system named is SUDHL6 DLBCL cells. The data set is described as follows: Growth inhibition of DLBCL cells, SUDHL6. The data set is classed as cell-based. To be noted: Homo sapiens, SU-DHL-6. As for the experimental part: as §1, §2
Another data set deals with Ly3 DLBCL cells. The data set is described as follows: Growth inhibition of DLBCL cells, Ly3. The data set is classed as cell-based. As for the experimental part: as §1, §2
For a further data set, the system named is Ly10 DLBCL cells. The data set is described as follows: Growth inhibition of DLBCL cells, Ly10. The settings on record: Table 9, Bcl6 dependent, read-out: GI 50 Ly10. The format is cell-based. As for the experimental part:
as §1, §2

For another data set, the system named is WSU-DLCL2 DLBCL cells. The data set is described as follows: Growth inhibition of DLBCL cells, WSU-DLCL2. The format is cell-based. The settings on record: Homo sapiens, WSUDLCL2. As for the experimental part:
as §1

The test system of another data set is Toledo DLBCL cells. Kind of data set: Growth inhibition of DLBCL cells, Toledo. The format is cell-based. To be noted: Homo sapiens. As to the method:
as §1, §2

The test system of a further data set is Ly4 DLBCL cells. The data set is described as follows: Growth inhibition of DLBCL cells, Ly4. The data set is classed as cell-based. The settings on record: Table 9; Bcl6 independent; read-out: GI 50 Ly4. As for the experimental part: as §1
For a further data set, the system named is Ly1B50 DLBCL cells. Kind of data set: Growth inhibition of DLBCL cells, Ly1B50. The data set is classed as cell-based. To be noted: Table 9; Bcl6 independent; read-out: GI 50 Ly1B50. As for the experimental part: as §1, §2
The test system of another data set is Karpas 422 DLBCL cells. The data set is described as follows: Growth inhibition of DLBCL cells, Karpas 422. The format is cell-based. To be noted: Homo sapiens. As to the method:
as §1, §2

[1] abbreviates: Table 9, Bcl6 dependent, read-out: GI 50 Ly7.
[2] abbreviates: Table 9, Bcl6 dependent, read-out: GI 50 SUDHL6.
Setting [3] is: Table 10, BCL6 dependent, read-out: GI50 SUDHL6.
The mark [4] stands for this setting: Table 9, Bcl6 dependent, read-out: GI 50 Ly3.
Setting [5] is: Table 9, Bcl6 independent, read-out: GI 50 WSUDLCL2.
Where [6] appears, read: Table 9, Bcl6 independent, read-out: GI 50 Toledo.
Where [7] appears, read: Table 9, Bcl6 independent, read-out: GI 50 K422.
The mark [8] stands for this setting: Table 13, BCL6 dependent, read-out: GI50 SUDHL6.

For the compound `O=C(O)CC(C(=O)O)N1C(=O)/C(=C2/C(=O)Nc3ccc(Br)cc32)SC1=S` (centres unmarked) [Compound 79-6], the “inhibition of PLZF BTB domain” value at PLZF-BTB is listed as “not other BTB domains”. The dissociation constant Kd on BCL6-BTB (affinity to the BCL6-BTB domain) was about 120 µM. Moreover, the “inhibition of HIC1 BTB domain” value on HIC1-BTB is given as “not other BTB domains”. Besides, in the data set with human DLBCL xenografts, the “effect on human DLBCL xenografts” value was “suppresses human DLBCL xenografts”. Besides, the toxicity result with mice is “not toxic”.
Consider `O=C(CN1C(=O)C(=O)c2cc(Cl)ccc21)OCc1ccc(Cl)cc1` [Compound 355], for which the GI50 worked out at 37 µM in the data set with Ly1 DLBCL cells; 45 µM in the data set on Ly7 DLBCL cells (setting [1]); 43 ± 3 µM in the data set on Ly7 DLBCL cells (Table 10, BCL6 dependent); 1 µM with SUDHL6 DLBCL cells (setting [2]); 42 ± 10 µM in the data set with SUDHL6 DLBCL cells (setting [3]); 54 µM with Ly3 DLBCL cells (setting [4]). The GI50 in the data set with Ly10 DLBCL cells was 62 µM; in the data set on WSU-DLCL2 DLBCL cells (setting [5]) it was 52 µM; in the data set with Toledo DLBCL cells (setting [6]), 35 µM; with Toledo DLBCL cells (Table 10, BCL6 independent), 45 ± 7 µM; in the data set with Ly4 DLBCL cells, 81 µM; in the data set with Ly1B50 DLBCL cells it was 55 µM. Also, the GI50 with Karpas 422 DLBCL cells (setting [7]) was determined as 38 µM.
For `O=C(CN1C(=O)C(=O)c2cc(Cl)ccc21)OCc1ccc(F)cc1` [Compound 357], the GI50 in the data set with Ly1 DLBCL cells worked out at 81 µM; in the data set on Ly7 DLBCL cells (setting [1]), 25 µM; in the data set on Ly7 DLBCL cells (Table 10, BCL6 dependent), 30 ± 10 µM; in the data set with SUDHL6 DLBCL cells (setting [2]), 1 µM; with SUDHL6 DLBCL cells (setting [3]), 22 ± 3 µM; in the data set with Ly3 DLBCL cells (setting [4]), 79 µM. Moreover, the GI50 was 60 µM in the data set with Ly10 DLBCL cells; 100 µM with WSU-DLCL2 DLBCL cells (setting [5]); 51 µM in the data set on Toledo DLBCL cells (setting [6]); 50 ± 1 µM in the data set with Toledo DLBCL cells (Table 10, BCL6 independent); over 125 µM in the data set on Ly4 DLBCL cells; 56 µM in the data set on Ly1B50 DLBCL cells. In addition, in the data set with Karpas 422 DLBCL cells (setting [7]), the GI50 is 58 µM.
As to `O=C(CN1C(=O)C(=O)c2cc(Cl)ccc21)OCc1cccc(F)c1` [Compound 358], the GI50 was over 125 µM with Ly1 DLBCL cells; 20 µM with Ly7 DLBCL cells (setting [1]); 40 ± 10 µM with Ly7 DLBCL cells (Table 10, BCL6 dependent); 2 µM in the data set on SUDHL6 DLBCL cells (setting [2]); 27 ± 4 µM in the data set on SUDHL6 DLBCL cells (setting [3]); over 125 µM in the data set on Ly3 DLBCL cells (setting [4]). In addition, the GI50 was over 125 µM in the data set on Ly10 DLBCL cells; over 125 µM in the data set with WSU-DLCL2 DLBCL cells (setting [5]); 69 µM in the data set on Toledo DLBCL cells (setting [6]); 82 ± 20 µM in the data set with Toledo DLBCL cells (Table 10, BCL6 independent); over 125 µM in the data set with Ly4 DLBCL cells; over 125 µM in the data set with Ly1B50 DLBCL cells. For the same compound, in the data set with Karpas 422 DLBCL cells (setting [7]), the GI50 was over 125 µM.
Consider `C[C@@H](OC(=O)CN1C(=O)C(=O)c2cc(Cl)ccc21)c1ccccc1` [Compound 361], for which the GI50 with Ly1 DLBCL cells turned out to be 24 µM; in the data set with Ly7 DLBCL cells (setting [1]), 26 µM; in the data set with SUDHL6 DLBCL cells (setting [2]) it was 7 µM; with Ly3 DLBCL cells (setting [4]) it was 56 µM; with Ly10 DLBCL cells, 166 µM; in the data set on WSU-DLCL2 DLBCL cells (setting [5]) it was 41 µM. In addition, the GI50 in the data set on Toledo DLBCL cells (setting [6]) worked out at 39 µM; with Ly4 DLBCL cells, 98 µM; in the data set on Ly1B50 DLBCL cells, 103 µM; in the data set with Karpas 422 DLBCL cells (setting [7]) it was 20 µM.
Regarding `O=C(CN1C(=O)C(=O)c2cc(Cl)ccc21)OCc1ccsc1` [Compound 367], the GI50 with Ly7 DLBCL cells (Table 10, BCL6 dependent) stood at 22 ± 4 µM; in the data set on SUDHL6 DLBCL cells (setting [3]) it was 15 ± 7 µM; in the data set with Toledo DLBCL cells (Table 10, BCL6 independent), 53 ± 10 µM. The same compound returned a Kd on BCL6-BTB (Table 10) of 324 ± 34 µM.
Regarding `Clc1ccc2[nH]c(SCc3ccccc3)nc2c1` [Compound 1057], the GI50 with Ly7 DLBCL cells (Table 13, BCL6 dependent) was over 125 µM; in the data set on SUDHL6 DLBCL cells (setting [8]), over 125 µM; in the data set on Toledo DLBCL cells (Table 13, BCL6 independent) it was over 125 µM. In addition, binding at BCL6-BTB (Table 13) was put at a Kd of 87 ± 12 µM.
With `O=[N+]([O-])c1ccc2[nH]c(SCc3ccccc3)nc2c1` [Compound 1061], the GI50 in the data set on Ly7 DLBCL cells (Table 13, BCL6 dependent) was 60 µM; with SUDHL6 DLBCL cells (setting [8]), 40 ± 10 µM; with Toledo DLBCL cells (Table 13, BCL6 independent), over 125 µM. At BCL6-BTB (Table 13), binding was characterised by a dissociation constant (Kd) of 180 ± 36 µM.
The like results for `CCOc1ccc2[nH]c(SCc3ccccc3)nc2c1` [Compound 1063] were, in that order, over 125 µM, over 125 µM, over 125 µM and 315 ± 24 µM.
With `O=C(O)CCN1C(=O)/C(=C2/C(=O)N(CC(=O)OCc3ccccc3)c3ccc(Cl)cc32)SC1=S` [Compound 2099], the GI50 is 65 µM in the data set on Ly7 DLBCL cells (Table 5, BCL6 dependent); over 30 µM with Ly7 DLBCL cells (Table 8, Bcl-6 dependent); 30 ± 7 µM in the data set on SUDHL6 DLBCL cells (Table 5, BCL6 dependent, read-out: GI50 SUDHL6); over 30 µM with SUDHL6 DLBCL cells (Table 8, Bcl-6 dependent, read-out: GI50 SUDH6); over 30 µM with Ly3 DLBCL cells (Table 8, Bcl-6 dependent); over 30 µM in the data set on WSU-DLCL2 DLBCL cells (Table 8, Bcl-6 independent). The GI50 with Toledo DLBCL cells (Table 5, BCL6 independent) was 75 µM; with Toledo DLBCL cells (Table 8, Bcl-6 independent), over 30 µM; in the data set with Karpas 422 DLBCL cells (Table 8, Bcl-6 independent, read-out: GI50 Karpas 422) it was over 30 µM. On BCL6-BTB (Table 5), this compound showed a Kd of 5.5 ± 0.7 µM.
